# Laboratory results as given in patent publication US20230278972A1, “SUBSTITUTED HALOALKYL SULFONANILIDE HERBICIDES” (FMC Corporation, priority 2020, published 2023).
# Columns and labels:
# Assay type in all cases: in vivo
# [1] = system: kochia (Bassia scoparia); test: Test A1 preemergence, kochia
# Method in brief: (§1)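 Seeds were first planted into a blend of loam soil and sand and given a preemergence directed soil spray. In parallel, pots of the same soil were sown for postemergence application once plants reached 2 to 10 cm and the one- to two-leaf stage. Both used surfactant-containing non-phytotoxic solvent formulations.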
# [2] = system: Oat, Wild (wild oat, Avena fatua); test: Test A1 preemergence, Oat, Wild
# Method in brief: as §1
# [3] = system: Pigweed, Palmer (palmer amaranth, palmer pigweed, Amaranthus palmeri); test: Test A1 preemergence, Pigweed, Palmer
# Method in brief: as §1
# [4] = system: soybean (Glycine max); test: Test A1 preemergence, soybean
# Method in brief: as §1
# [5] = system: wheat (Triticum aestivum); test: Test A1 preemergence, wheat
# Method in brief: as §1
# [6] = system: Oat, Wild (wild oat, Avena fatua); test: Test A1 postemergence, Oat, Wild; settings: Postemergence
# Method in brief: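 Plants grown in pots of loam/sand mix; preemergence = soil-directed spray on seeded pots, postemergence = spray at 1–2 leaves, height 2–10 cm; test chemicals formulated in non-phytotoxic solvent with surfactant.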
# [7] = system: Ryegrass, Italian (Italian ryegrass, Lolium multiflorum); test: Test A1 postemergence, Ryegrass, Italian; settings: Postemergence
# Method in brief: (§2)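 Herbicidal response was scored on plants treated either preemergence, by directed spray onto soil of a loam–sand blend after sowing, or postemergence on potted plants at the one- to two-leaf stage, 2–10 cm high. Test chemicals were carried in a non-phytotoxic solvent mix with surfactant.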
# [8] = system: horseweed (Erigeron canadensis); test: Test A1 postemergence, horseweed; settings: Postemergence
# Method in brief: as §2
# [9] = system: barnyardgrass (Echinochloa crus-galli); test: Test B1 flooded paddy test, barnyardgrass; settings: 250 g ai/ha, Flood, applied to paddy water, 2-leaf stage, visually evaluated after 10 to 14 days
# Description: (§3) A dash (-) response means no test result.
# [10] = system: ducksalad (Heteranthera limosa); test: Test B1 flooded paddy test, ducksalad; settings: 250 g ai/ha, Flood, applied to paddy water, 2-leaf stage, visually evaluated after 10 to 14 days
# Description: as §3
# [11] = 31 g ai/ha, 0 to 100 scale (0 no effect, 100 complete control)
# [12] = 125 g ai/ha, 0 to 100 scale, 0 no effect, 100 complete control
# [13] = 31 g ai/ha, 0 to 100 scale (0 no effect, 100 complete control), 10 days
Structure (SMILES),"Plant response rating, Kochia [1, 11]","Plant response rating, Kochia [1, 12]","Plant response rating, Oat, Wild [2, 11]","Plant response rating, Oat, Wild [2, 12]","Plant response rating, Pigweed, Palmer [3, 11]","Plant response rating, Pigweed, Palmer [3, 12]","Plant response rating, Soybean [4, 11]","Plant response rating, Soybean [4, 12]","Plant response rating, Wheat [5, 11]","Plant response rating, Wheat [5, 12]","Plant response rating, Oat, Wild [6, 13]","Plant response rating, Oat, Wild ([6]; 125 g ai/ha, 0 to 100 scale)","Plant response rating, Ryegrass, Italian [7, 13]","Plant response rating, Ryegrass, Italian ([7]; 125 g ai/ha, 0 to 100 scale)","Plant response rating, Horseweed [8, 13]","Plant response rating, Horseweed ([8]; 125 g ai/ha, 0 to 100 scale)","Plant response rating, Barnyardgrass (0 to 100 scale, 0 is no effect, 100 is complete control) [9]","Plant response rating, Ducksalad (0 to 100 scale, 0 is no effect, 100 is complete control) [10]"
Cc1c(C(=O)N2CCCCC2)cc(NS(=O)(=O)C(F)(F)F)c(Cl)c1F [Compound 333],20,80,20,40,90,100,40,60,0,50,0,10,0,0,0,30,0,70
Cc1cc(C)c(N(COC(=O)OC(C)C)S(=O)(=O)C(F)(F)F)cc1C1=NOC2CCCC12 (stereo not drawn) [Compound 314],0,70,0,0,70,70,20,40,0,50,0,10,10,70,0,50,98,90
Cc1c(C(=O)N2CCC(F)CC2)cc(N(COC(=O)C(C)(C)C)S(=O)(=O)C(F)(F)F)c(C)c1C [Compound 361],0,30,0,0,0,20,0,20,0,0,0,20,0,0,70,90,95,65
Cc1cc(F)c(NS(=O)(=O)C(F)(F)F)cc1C1=NOC2(CCCC2)C1 [Compound 303],20,20,20,60,20,20,0,0,30,90,0,20,0,60,0,70,0,0
"Cc1c(C2=NO[C@@H]3CCC[C@H]23)cc(N(COC(=O)C(C)(C)C)S(=O)(=O)C(F)(F)F)c(C)c1C [Compound 336, [[(Trifluoromethyl)sulfonyl][2,3,4-trimethyl-5-[(3aR,6aR)-3a,5,6,6a-tetrahydro-4H-cyclopent[d]isoxazol-3-yl]phenyl]amino]methyl 2,2-dimethylpropanoate]",0,0,0,20,60,100,0,0,0,0,0,0,0,0,0,60,95,75
COc1cc(C)c(C2=NOC3(CCCC3)C2)cc1NS(=O)(=O)C(F)(F)F [Compound 304],0,0,50,0,0,20,0,0,0,20,0,0,0,0,0,0,0,0
